What was measured:
Format in all cases: cell-based
[1] = test system: mucoid strain of Pseudomonas aeruginosa; experiment: in vitro contact-time test on a mucoid strain of Pseudomonas aeruginosa
Method: (§1) The solution from the example was tested in vitro on a mucoid strain of Pseudomonas aeruginosa, Burkholderia cepacia and Methicillin Resistant Staphylococcus Aureus.

[2] = test system: Methicillin Resistant Staphylococcus aureus (MRSA); experiment: in vitro contact-time test on MRSA
Method: as §1
Methicillin Resistant Staphylococcus aureus (MRSA)

Burkholderia cepacia = experiment: in vitro contact-time test on Burkholderia cepacia
Method: as §1
Burkholderia cenocepacia J2315 (ATCC BAA 245 known to be resistant to Tobramycin and Colistin (Holden 2009, Soiza 2004)), derived from patients with cystic fibrosis.

## N#CSO [500 μM OSCN, hypothiocyanite]
[1]; contact time 0 hours
  bacterial count: 4.14 log CFU/ml
[1]; contact time 0.5 hours
  bacterial count: 3.23 log CFU/ml
[1]; contact time 1 hour
  bacterial count: 3.16 log CFU/ml
[1]; contact time 2 hours
  bacterial count: 2.98 log CFU/ml
[1]; contact time 4 hours
  bacterial count: 2.08 log CFU/ml
[1]; contact time 6 hours
  bacterial count: 1.90 log CFU/ml
[1]; contact time 24 hours
  bacterial count: 1.78 log CFU/ml
[2]; contact time 0 hours
  bacterial count: 4.15 log CFU/ml
[2]; contact time 0.5 hours
  bacterial count: 3.80 log CFU/ml
[2]; contact time 1 hour
  bacterial count: 3.70 log CFU/ml
[2]; contact time 2 hours
  bacterial count: 3.33 log CFU/ml
[2]; contact time 4 hours
  bacterial count: 2.89 log CFU/ml
[2]; contact time 6 hours
  bacterial count: 2.25 log CFU/ml
[2]; contact time 24 hours
  bacterial count: 1.97 log CFU/ml
Burkholderia cepacia; contact time 0 hours
  bacterial count: 4.41 log CFU/ml
Burkholderia cepacia; contact time 0.5 hours
  bacterial count: 3.64 log CFU/ml
Burkholderia cepacia; contact time 1 hour
  bacterial count: 3.56 log CFU/ml
Burkholderia cepacia; contact time 2 hours
  bacterial count: 3.03 log CFU/ml
Burkholderia cepacia; contact time 4 hours
  bacterial count: 2.08 log CFU/ml
Burkholderia cepacia; contact time 6 hours
  bacterial count: 1.98 log CFU/ml
Burkholderia cepacia; contact time 24 hours
  bacterial count: 1.78 log CFU/ml

From patent US9078859B2, “Use of a synergistic combination of hypothiocyanite and/or hypohalite ions and lactoferrin for preparing a treatment for cystic fibrosis” (ALAXIA, priority 2009, dated 2015)
